Results from US20080119517A1, “COMPOSITIONS AND METHODS FOR PROTECTING AGAINST MITOCHONDRIA COMPONENT-MEDIATED PATHOLOGY” (Cornell Research Foundation, Inc., priority 2003, published 2008).
“Also recorded” adds a separate entry of the source.

Tests used:
[1] = tested on: rabbit models of cerebral and spinal ischemia; conditions: in vivo; cited from earlier work
[2] = tested on: isolated liver mitochondria; assay: Four-parameter mitochondrial physiology (oxygen, Ca2+, membrane potential, swelling); format: biochemical, rat; conditions: 10 μM; for protection against PT induction (swelling, A660): high Ca2+ dose
Protocol: Mitochondrial physiological parameters were assessed to determine whether these heterocyclics and related compounds interfered direly with mitochondrial functions, and whether such interference might underlie their protection (e.g., respiratory inhibitors can score as protective in some assays, as can uncouplers, but neither would be optimal as a therapeutic candidate). […]; methiothepin [serotonin modulator]; clomipramine [antidepressant]).
FIG. 5 illustrates that the heterocyclic compounds delay PT induction in isolated liver mitochondria without impairing mitochondrial physiology. FIG. 5a depicts oxygen consumption measured by Clark electrode. Oxygen concentration in buffer decreases as the signal decreases. FIG. 5b depicts Ca^2+ transport measured by Ca^2+— selective electrode. The Ca^2+ in buffer increases as the signal increases. FIG. 5c depicts Δψ measured using a TPP^+ electrode. The Δψ parameter decreases as the signal increases. TPP^+ uptake determined by comparison with standard curve after correction for shift in the electrode signal is induced by the compounds examined. […] Changes in Δψ consistent with the slight increases in respiration (equivalent to approximately 5% of maximally uncoupled mitochondria) observed with some drags is likely below the limit of detection. FIG. 5d depicts mitochondrial swelling (absorbance) monitored by a light emitting diode BET) at A660. Mitochondrial are more swollen when signal decreases. Assay in 300 mM sucrose, 2.5 mM K—PO4, 3 mM HERPES, pH 7.2 and 5 mM succinate. Experiments were stopped shortly after oxygen was consumed.
Liver mitochondrial respiration was measured in 250 mM sucrose, 3 mM MgCl2, 0.5 mM EDTA, 10 mM KH2PO4 (pH 7.2). The buffer was equilibrated at 28° C. for not less than an hour before taking measurements. Respiration was initiated by adding mitochondria isolate to the oxygraph cell (0.9±0.2 mg/mL protein). State 3 respiration was initiated with ADP (˜200 μM). The substrates were added at either 5 or 10 mM for α-ketoglutarate and glutamate/malate and 10-20 mM for succinate. Respiration rates were determined using a PC-controlled Strathkelvin Instruments Limited 928 6-Channel Dissolved Oxygen System with two standard Clark-type electrodes fitted to two standard Gilson 1.7-1.8 mL oxygraph cells. Traces were analyzed using the Strathkelvin data acquisition and analysis program included with the instrument. The lines of best fit were calculated and plotted to polarographic traces using the built-in software function based on least squares regression analysis. State 3 respiration rates were calculated when stabilized, i.e., 1.0-1.5 minutes after initiating the state. Respiration before and after ADP consumption was used to calculated RCR. All experiments were carried out in triplicate. All substrates used in mitochondrial respiration experiments were dissolved in respiration buffer (see below) and brought to neutral pH.
The experimental system employed comprises a respiration chamber that can be sealed and placed in a light tight outer chamber. Electrodes and sensors are positioned in a single plane around the outside of the chamber—this system enables simultaneous measurement of oxygen uptake, membrane potential, calcium, and light scattering (absorbance). Oxygen uptake, membrane potential, and Cab are measured using Clark, TPP^+, and Ca^2+-sensitive electrodes, respectively see, Zhu, S., et al., Nature 417:74-78, 2002. A660 is measured using a diode. The chamber is water-jacketed to allow thermostabilization (15-to-1 water volume to sample volume −1 mL, closed chamber). Samples were constantly stirred using a top-mounted magnetic stir bar. Signals measured from electrodes and sensors are recorded on a computer through a commercially available L-154 card. Software has been written to enable data collection and analysis. All experiments were carried out in triplicate. Plots shown in the paper are representative.

[3] = tested on: gerbil ischemia-reperfusion model; conditions: cited from earlier work
[4] = molecular target: calmodulin (Homo sapiens, UniProt P0DP23); assay: Calmodulin-dependent calcineurin activity (pNPP hydrolysis); conditions: 300 μM compound
[5] = tested on: PT induction in isolated rat liver mitochondria; assay: High throughput spectrophotometric PT-induced swelling assay following Ca2+ challenge; format: biochemical; conditions: for protection against PT induction, score in the initial screen: 10 μM, blind library screen
Excerpt: This library was primarily composed of clinically-approved drugs that could readily be moved to late stage pre-clinical trials and then into accelerated clinical trials. […] The remainder of the library largely consisted of some analogues of these drugs, other known bioactive agents (including natural products, toxins and known inhibitors). Screening of this library was blind and was designed to identify compounds that acted independently of antioxidant activity or ability to chelate Ca^2+ (FIG. 2).
Assays were performed on mitochondria energized with succinate, glutamate/malate, or α-ketoglutarate. […] Subsequent assays (see, Table 1) repeated this approach using inducers optimized to overcome protection mediated by chelators (high C^2+ or antioxidants (high tert-butyl hydroperoxide), based on the rationale that it was unlikely to identify novel drug activities in these categories.
Each of these compounds was re-assayed against three models of PT induction and ranked according to the resistance it conferred to induction.
Bars are coded by each drug's therapeutic class. […] Compounds were assayed in triplicate at 7 concentrations (30, 10, 3, 1, 0.3, 0.1, and 0.03 μM) against three different challenges (50 μM Ca^2+/2.5 mM K—PO4, 25 μM Ca^2+/5 mM K—PO4, 25 μM Ca^2+/2.5 mM K—PO4/100 μM tert-butyl hydroperoxide). […] To address potential inaccuracies introduced by calculation of the area under the curve, protection was also assayed as percent absorbance remaining when absorbance of an unprotected sample had dropped and stabilized. […] “N” for each drug is 7 to 9. Horizontal lines show mean and mean plus one standard deviation.

[6] = tested on: primary cerebrocortical neurons; assay: Oxygen-glucose deprivation (OGD) of cultured primary cerebrocortical neurons; format: cell-based, mouse
Protocol: Heterocyclic-mediated protection was next examined in two models of stroke: (i) oxygen-glucose deprivation (OGD) of cultured primary cerebrocortical neurons, and; (ii) in the mouse, middle cerebral artery occlusion (MCAO)/reperfusion.
Neurotoxicity studies were conducted as previously described. […] Cerebral cortex of mouse embryos at day 15 (E15) were freed from meninges and separated from olfactory bulb and hippocampus.
OGD of primary cerebrocortical neurons is a widely used cell culture model of stroke-related pathology. […] Caspase-3 activation plays a key role in hypoxia/ischemia-mediated injury. To gam insight into the mechanism of promethazine-mediated neuroprotection, it was evaluated whether this compound could inhibit OGD-mediated caspase-3 activation.

[7] = tested on: mouse middle cerebral artery occlusion (MCAO); conditions: in vivo
[8] = tested on: apoptosis / PT induction; conditions: suggested; by reducing mitochondrial oxidative stress; cited from earlier work
[9] = tested on: phospholipase A2 (PLA2); conditions: cited from earlier work
[10] = tested on: ischemia-reperfusion injury in multiple models; conditions: cited from earlier work
[11] = tested on: humans; conditions: human, in vivo; cited from earlier work

CN(C)CCCN1c2ccccc2Sc2ccc(Cl)cc21 [Chlorpromazine]
functional impairment [1]: reduced

CN(C)CCCN1c2ccccc2CCc2ccc(Cl)cc21 [Clomipramine]
Ca2+ transport [2]: without affecting | initial oxygen consumption prior to PT induction [2]: without affecting | resting or recovered Δψ [2]: without affecting | protection against PT induction (swelling, A660) [2]: protected | hippocampal CA1 neuronal damage ([3]; 20 mg/kg): protect

OCCN1CCN(CCCN2c3ccccc3Sc3ccc(C(F)(F)F)cc32)CC1 [Flufenazine]
Ca2+ transport [2]: without affecting | initial oxygen consumption prior to PT induction [2]: without affecting | resting or recovered Δψ [2]: without affecting | protection against PT induction (swelling, A660) [2]: protected

CCOC(=O)N1CCC(=C2c3ccc(Cl)cc3CCc3cccnc32)CC1 [Loratadine]
calmodulin activity (ratio to untreated plate controls) [4]: apparent calmodulin activation

CSc1ccc2c(c1)C(N1CCN(C)CC1)Cc1ccccc1S2 (stereo not drawn) [Methiothepin]
relative potency as PT inhibitor ([5]; ranking among the heterocyclics): approximately equivalent to promethazine in potency | Ca2+ transport [2]: without affecting | initial oxygen consumption prior to PT induction [2]: without affecting | resting or recovered Δψ [2]: without affecting | protection against PT induction (swelling, A660) [2]: protected

CN1CCN2c3ccccc3Cc3ccccc3C2C1 (stereo not drawn) [Mianserin]
protection in the gerbil ischemia model ([3]; 5-20 mg/kg): protects

CNCCC=C1c2ccccc2CCc2ccccc21 [Nortriptyline]
OGD-mediated caspase-3 activation [6]: inhibits; also recorded: attenuated | OGD mediated cytochrome C release ([6]; Western blot): Inhibiting; also recorded: minimized | OGD cell death as measured by LDH release ([6]; nortriptyline): preventing cell death; also recorded: reduction | infarct (stroke) volume [7]: significant reduction | infarct area in coronal slices compared to the controls [7]: decreases | neurological examination following cerebral ischemia [7]: improves | neuroprotection following MCAO [7]: mediates neuroprotection

CSc1ccc2c(c1)N(CCC1CCCCN1C)c1ccccc1S2 (stereo not drawn) [Thioridazine]
PT induction [8]: delay | apoptosis [8]: inhibit

CN1CCN(CCCN2c3ccccc3Sc3ccc(C(F)(F)F)cc32)CC1 [Trifluoperazine]
protection against PT induction, score in the initial screen [5]: moderate | functional impairment [1]: reduced | phospholipase A2 (PLA2) inhibition [9]: can inhibit | protection against ischemia-reperfusion injury [10]: protective | tolerability in humans [11]: limited utility for long-term use in humans because of its toxicity

CN1CCN(CC(=O)N2c3ccccc3C(=O)Nc3cccnc32)CC1 [pirenzepine]
calmodulin activity (ratio to untreated plate controls) [4]: apparent calmodulin activation

CC/C(=C(\c1ccccc1)c1ccc(OCCN(C)C)cc1)c1ccccc1 [tamoxifen]
protection against PT induction, score in the initial screen [5]: moderate
